Reference: ChEMBL document CHEMBL1201862, “PubChem BioAssay data set” (2004)
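Five compound concentrations were applied to cells in 96-well plates for 48 hours; endpoints were derived by simple linear interpolation of the resulting dose-response curve. GI50 is the concentration that inhibits growth by half.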 Active and inactive are the calls of the source. Rule as the data show it: active = GI50 up to about 1.1 µM and inactive = higher. Non-standard residues stand in square brackets, D forms with d. Residues, ends and D or L forms follow the SMILES beside them. ξ: configuration not given here. *: point of attachment. NMeY = CN[C@@H](Cc1ccc(O)cc1)C(=O)O; Cbz = O=C(OCc1ccccc1)*; ξA = CC(N)C(=O)O

Key:
Assay in all cases: inhibition of tumour cell growth, NCI panel, 48 h
DMS-273 = system: DMS-273
DLD-1 = system: DLD-1
SK-OV-3 = system: SK-OV-3
M19-MEL = system: M19-MEL
HCT-116 = system: HCT-116
TK-10 = system: TK-10
NCI-H460 = system: NCI-H460
NCI-H522 = system: NCI-H522
EKVX = system: EKVX
UO-31 = system: UO-31
LOX IMVI = system: LOX IMVI
NCI-H23 = system: NCI-H23
OVCAR-8 = system: OVCAR-8
KM12 = system: KM12
SK-MEL-2 = system: SK-MEL-2
KM-20L2 = system: KM-20L2
IGROV-1 = system: IGROV-1
XF498 = system: XF498
CCRF-CEM = system: CCRF-CEM
DMS-114 = system: DMS-114
SR = system: SR
A549 = system: A549
COLO 205 = system: COLO 205
NCI-H226 = system: NCI-H226
HCT-15 = system: HCT-15
SW-620 = system: SW-620
SF-268 = system: SF-268
SK-MEL-28 = system: SK-MEL-28
HOP-62 = system: HOP-62
U-251 = system: U-251
OVCAR-3 = system: OVCAR-3
UACC-257 = system: UACC-257
K562 = system: K562
OVCAR-5 = system: OVCAR-5
SNB-19 = system: SNB-19
SK-MEL-5 = system: SK-MEL-5
M14 = system: M14
SF-539 = system: SF-539
RPMI-8226 = system: RPMI-8226
SN12C = system: SN12C
MOLT-4 = system: MOLT-4
LXFL 529 = system: LXFL 529
HT-29 = system: HT-29
HL-60 = system: HL-60
SNB-75 = system: SNB-75
HCC 2998 = system: HCC 2998
RXF 393 = system: RXF 393
786-0 = system: 786-0
ACHN = system: ACHN
HOP-92 = system: HOP-92
UACC-62 = system: UACC-62
Malme-3M = system: Malme-3M
SF-295 = system: SF-295
MDA-MB-231 = system: MDA-MB-231
OVCAR-4 = system: OVCAR-4
MDA-MB-435 = system: MDA-MB-435
MCF7 = system: MCF7
PC-3 = system: PC-3
Hs-578T = system: Hs-578T
NCI/ADR-RES = system: NCI/ADR-RES
CAKI-1 = system: CAKI-1
BT-549 = system: BT-549
MDA-N = system: MDA-N
DU-145 = system: DU-145
A498 = system: A498
T47D = system: T47D

O=C1OC2(OC2c2ccccc2)c2ccccc21 (stereo unspecified)
GI50 (DMS-273): > 100 µM (inactive)
GI50 (DLD-1): > 100 µM (inactive)
GI50 (SK-OV-3): > 100 µM (inactive)
GI50 (M19-MEL): > 100 µM (inactive)
GI50 (HCT-116): 5.05 µM (inactive)
GI50 (TK-10): > 100 µM (inactive)
GI50 (NCI-H460): > 100 µM (inactive)
GI50 (NCI-H522): > 100 µM (inactive)
GI50 (EKVX): > 100 µM (inactive)
GI50 (UO-31): > 100 µM (inactive)
GI50 (LOX IMVI): > 100 µM (inactive)
GI50 (NCI-H23): > 100 µM (inactive)
GI50 (OVCAR-8): > 100 µM (inactive)
GI50 (KM12): > 100 µM (inactive)
GI50 (SK-MEL-2): > 100 µM (inactive)
GI50 (KM-20L2): > 100 µM (inactive)
GI50 (IGROV-1): > 100 µM (inactive)
GI50 (XF498): > 100 µM (inactive)
GI50 (CCRF-CEM): > 100 µM (inactive)
GI50 (DMS-114): 1.32 µM (inactive)
GI50 (SR): > 100 µM (inactive)
GI50 (A549): > 100 µM (inactive)
GI50 (COLO 205): > 100 µM (inactive)
GI50 (NCI-H226): > 100 µM (inactive)
GI50 (HCT-15): > 100 µM
GI50 (SW-620): > 100 µM (inactive)
GI50 (SF-268): > 100 µM (inactive)
GI50 (SK-MEL-28): > 100 µM (inactive)
GI50 (HOP-62): > 100 µM (inactive)
GI50 (U-251): > 100 µM (inactive)
GI50 (OVCAR-3): > 100 µM (inactive)
GI50 (UACC-257): > 100 µM (inactive)
GI50 (K562): > 100 µM (inactive)
GI50 (OVCAR-5): > 100 µM (inactive)
GI50 (SNB-19): > 100 µM (inactive)
GI50 (SK-MEL-5): > 100 µM (inactive)
GI50 (M14): > 100 µM (inactive)
GI50 (SF-539): > 100 µM (inactive)
GI50 (RPMI-8226): > 100 µM (inactive)
GI50 (SN12C): > 100 µM (inactive)
GI50 (MOLT-4): > 100 µM (inactive)
GI50 (LXFL 529): > 100 µM (inactive)
GI50 (HT-29): > 100 µM (inactive)
GI50 (HL-60): > 100 µM (inactive)
GI50 (SNB-75): > 100 µM (inactive)
GI50 (HCC 2998): > 100 µM (inactive)
GI50 (RXF 393): > 100 µM (inactive)
GI50 (786-0): > 100 µM (inactive)
GI50 (ACHN): > 100 µM (inactive)
GI50 (HOP-92): > 100 µM (inactive)
GI50 (UACC-62): > 100 µM (inactive)
GI50 (Malme-3M): > 100 µM (inactive)

COc1ccc(C[C@@H](C(=O)NCC(N)=O)N(C)C(=O)[C@@H]2CCCN2C(=O)[C@H](CC(C)C)NC(=O)C(C)NC(=O)OCc2ccccc2)cc1 (stereo partly specified) (Cbz-[ξA]LP[NMeY](Me)G-NH2)
GI50 (SF-295): > 100 µM (inactive)
GI50 (SK-OV-3): > 100 µM (inactive)
GI50 (HCT-116): > 100 µM (inactive)
GI50 (TK-10): > 100 µM (inactive)
GI50 (NCI-H460): > 100 µM (inactive)
GI50 (MDA-MB-231): > 100 µM (inactive)
GI50 (NCI-H522): > 100 µM (inactive)
GI50 (EKVX): > 100 µM (inactive)
GI50 (UO-31): > 100 µM (inactive)
GI50 (LOX IMVI): > 100 µM (inactive)
GI50 (OVCAR-4): > 100 µM (inactive)
GI50 (NCI-H23): > 100 µM (inactive)
GI50 (OVCAR-8): > 100 µM (inactive)
GI50 (KM12): > 100 µM (inactive)
GI50 (MDA-MB-435): > 100 µM (inactive)
GI50 (SK-MEL-2): > 100 µM (inactive)
GI50 (IGROV-1): > 100 µM (inactive)
GI50 (CCRF-CEM): > 100 µM (inactive)
GI50 (MCF7): > 100 µM (inactive)
GI50 (PC-3): > 100 µM (inactive)
GI50 (Hs-578T): > 100 µM (inactive)
GI50 (SR): > 100 µM (inactive)
GI50 (A549): > 100 µM (inactive)
GI50 (COLO 205): > 100 µM (inactive)
GI50 (NCI-H226): > 100 µM (inactive)
GI50 (NCI/ADR-RES): > 100 µM (inactive)
GI50 (HCT-15): > 100 µM
GI50 (CAKI-1): > 100 µM (inactive)
GI50 (BT-549): > 100 µM (inactive)
GI50 (SW-620): > 100 µM (inactive)
GI50 (MDA-N): > 100 µM (inactive)
GI50 (SF-268): > 100 µM (inactive)
GI50 (SK-MEL-28): > 100 µM (inactive)
GI50 (HOP-62): > 100 µM (inactive)
GI50 (DU-145): > 100 µM (inactive)
GI50 (U-251): > 100 µM (inactive)
GI50 (OVCAR-3): > 100 µM (inactive)
GI50 (UACC-257): > 100 µM (inactive)
GI50 (K562): > 100 µM (inactive)
GI50 (OVCAR-5): > 100 µM (inactive)
GI50 (SNB-19): > 100 µM (inactive)
GI50 (SK-MEL-5): > 100 µM (inactive)
GI50 (M14): > 100 µM (inactive)
GI50 (A498): > 100 µM (inactive)
GI50 (SF-539): > 100 µM (inactive)
GI50 (RPMI-8226): > 100 µM (inactive)
GI50 (SN12C): > 100 µM (inactive)
GI50 (MOLT-4): > 100 µM (inactive)
GI50 (HT-29): > 100 µM (inactive)
GI50 (HL-60): > 100 µM (inactive)
GI50 (SNB-75): > 100 µM (inactive)
GI50 (HCC 2998): > 100 µM (inactive)
GI50 (RXF 393): > 100 µM (inactive)
GI50 (786-0): > 100 µM (inactive)
GI50 (ACHN): > 100 µM (inactive)
GI50 (T47D): > 100 µM (inactive)
GI50 (HOP-92): > 100 µM (inactive)
GI50 (UACC-62): > 100 µM (inactive)
GI50 (Malme-3M): > 100 µM (inactive)
